Among the data in ChEMBL document CHEMBL2062499, “Synthesis of benzofuran based 1,3,5-substituted pyrazole derivatives: as a new class of potent antioxidants and antimicrobials--a novel accost to amend biocompatibility” (Bioorg Med Chem Lett, 2012) are zone of inhibition, inhibition zone (IZ) and IC50 values, retold here.

For assay [1], the system named is Candida albicans. The experiment in a line: Antifungal activity against Candida albicans MTCC 2827 at 1 mg/ml after 72 hrs by well plate method. The note with it: MTCC 2827, 72 h, read-out: DIZ. Type of assay: functional.
The subject of assay [2] is Candida albicans. The experiment in a line: Antifungal activity against Candida albicans MTCC 2827 at 0.5 mg/ml after 72 hrs by well plate method. Type of assay: functional. The note with it: MTCC 2827, 72 h, read-out: DIZ.
For assay [3], the system named is Pseudomonas aeruginosa. The experiment in a line: Antibacterial activity Pseudomonas aeruginosa ATCC 27853 at 1 mg/ml after 24 hrs by well plate method. It counts as functional. The note with it: ATCC 27853, 24 h, read-out: DIZ.
The subject of assay [4] is Staphylococcus aureus. The experiment in a line: Antibacterial activity Staphylococcus aureus ATCC 25923 at 1 mg/ml after 24 hrs by well plate method. Type of assay: functional. The note with it: ATCC 25923, 24 h, read-out: DIZ.
The subject of assay [5] is Staphylococcus aureus. The assay is described as follows: Antibacterial activity Staphylococcus aureus ATCC 25923 at 0.5 mg/ml after 24 hrs by well plate method. Type of assay: functional. The note with it: ATCC 25923, 24 h, read-out: DIZ.
In assay [6] the test system is Aspergillus flavus. The experiment in a line: Antifungal activity against Aspergillus flavus MTCC 3306 at 1 mg/ml after 72 hrs by well plate method. The note with it: MTCC 3306, 72 h, read-out: DIZ. Type of assay: functional.
Assay [7] in a line: Antifungal activity against Chrysosporium keratinophilum MTCC 3017 at 0.5 mg/ml after 72 hrs by well plate method. It counts as functional.
For assay [8], the system named is Escherichia coli. The assay is described as follows: Antibacterial activity Escherichia coli ATCC 25922 at 1 mg/ml after 24 hrs by well plate method. Type of assay: functional. The note with it: ATCC 25922, 24 h, read-out: DIZ.
A short description of assay [9]: Antifungal activity against Chrysosporium keratinophilum MTCC 3017 at 1 mg/ml after 72 hrs by well plate method. It counts as functional.
Assay [10] deals with Aspergillus flavus. The assay is described as follows: Antifungal activity against Aspergillus flavus MTCC 3306 at 0.5 mg/ml after 72 hrs by well plate method. It counts as functional. The note with it: MTCC 3306, 72 h, read-out: DIZ.
Assay [11] deals with Radical scavenging activity. The experiment in a line: Antioxidant activity assessed as DPPH radical scavenging activity after 20 mins by UV-Vis spectrophotometric analysis. Type of assay: functional. (In general: The DPPH test is a chemical assay of radical scavenging.)
Assay [12] concerns Pseudomonas aeruginosa. The assay is described as follows: Antibacterial activity Pseudomonas aeruginosa ATCC 27853 at 0.5 mg/ml after 24 hrs by well plate method. Type of assay: functional. The note with it: ATCC 27853, 24 h, read-out: DIZ.
The next assay has as its system Liver microsomes. The experiment in a line: Antioxidant activity in Wistar rat liver microsomes assessed as inhibition of microsomal lipid peroxidation after 15 mins by MDA-TBA assay. Type of assay: functional, Microsome. In general terms: Liver microsomes are a subcellular fraction often used to study metabolism.
For assay [13], the system named is Escherichia coli. The experiment in a line: Antibacterial activity Escherichia coli ATCC 25922 at 0.5 mg/ml after 24 hrs by well plate method. It counts as functional. The note with it: ATCC 25922, 24 h, read-out: DIZ.

SMILES strings stand for the structures.

Consider `COc1cc(C2CC(c3cc4ccccc4o3)=NN2C(=O)Nc2ccc([N+](=O)[O-])cc2)ccc1O` (centres undefined), for which the zone of inhibition at 1000 µg/mL with Candida albicans [1] amounted to 5 mm; in the assay with Pseudomonas aeruginosa [3] it was 9 mm; in the assay on Staphylococcus aureus [4], 8 mm; in the assay on Aspergillus flavus [6] it was 5 mm; in the assay with Escherichia coli [8], 15 mm. Also, the zone of inhibition at 500 µg/mL with Candida albicans [2] is 4 mm; with Staphylococcus aureus [5] it was 6 mm; with Aspergillus flavus [10], 3 mm; in the assay on Pseudomonas aeruginosa [12], 7 mm; in the assay on Escherichia coli [13], 9 mm. Further, the inhibition zone (IZ) in assay [7] worked out at 3 mm; in assay [9] it was 4 mm. The IC50 amounted to 103 uM/ml in assay [11] and 113 uM/ml in the assay on Liver microsomes.

Take `COc1cc(C2CC(c3cc4ccccc4o3)=NN2C(=O)Nc2ccccc2)ccc1O` (centres undefined): the zone of inhibition at 1000 µg/mL in the assay with Candida albicans [1] stood at 2 mm; with Pseudomonas aeruginosa [3], 2 mm; in the assay with Staphylococcus aureus [4], 3 mm; in the assay on Aspergillus flavus [6], 2 mm; in the assay with Escherichia coli [8] it was 2 mm. Also, the zone of inhibition at 500 µg/mL stood at 1 mm with Candida albicans [2]; 2 mm in the assay on Staphylococcus aureus [5]; 1 mm in the assay with Aspergillus flavus [10]; 1 mm in the assay with Pseudomonas aeruginosa [12]; 1 mm with Escherichia coli [13]. Besides, the inhibition zone (IZ) in assay [7] was determined as 2 mm; in assay [9], 3 mm. Besides, the values for the IC50 (in [11]; in the assay with Liver microsomes) were 121 uM/ml and 116 uM/ml, respectively.

In the case of `COc1cc(C2CC(c3cc4ccccc4o3)=NN2)ccc1O` (centres undefined), the zone of inhibition at 1000 µg/mL in the assay on Candida albicans [1] turned out to be 1 mm; in the assay with Pseudomonas aeruginosa [3], 0 mm; in the assay with Staphylococcus aureus [4] it was 0 mm; in the assay on Aspergillus flavus [6], 0 mm; in the assay with Escherichia coli [8] it was 0 mm. Also, the zone of inhibition at 500 µg/mL with Candida albicans [2] is 1 mm; with Staphylococcus aureus [5], 0 mm; in the assay on Aspergillus flavus [10], 0 mm; in the assay with Pseudomonas aeruginosa [12], 0 mm; in the assay with Escherichia coli [13], 0 mm. In addition, the inhibition zone (IZ) was determined as 0 mm in assay [7] and 1 mm in assay [9]. Also, the IC50 is 100 uM/ml in assay [11] and 112 uM/ml with Liver microsomes.

Turning to `COc1cc(C2CC(c3cc4ccccc4o3)=NN2C(=O)Nc2ccccc2O)ccc1O` (centres undefined), the zone of inhibition at 1000 µg/mL in the assay on Candida albicans [1] was found to be 4 mm; in the assay with Pseudomonas aeruginosa [3], 4 mm; in the assay with Staphylococcus aureus [4], 2 mm; with Aspergillus flavus [6] it was 2 mm; in the assay on Escherichia coli [8], 3 mm. Moreover, the zone of inhibition at 500 µg/mL in the assay with Candida albicans [2] is 3 mm; in the assay on Staphylococcus aureus [5], 1 mm; with Aspergillus flavus [10], 1 mm; with Pseudomonas aeruginosa [12], 2 mm; in the assay on Escherichia coli [13], 1 mm. The inhibition zone (IZ) in assay [7] is 2 mm; in assay [9], 4 mm. The IC50 in assay [11] came to 19 uM/ml; with Liver microsomes, 22 uM/ml.

Regarding `OC(Cn1cncn1)(Cn1cncn1)c1ccc(F)cc1F` [FLUCONAZOLE], the zone of inhibition at 1000 µg/mL was 22 mm in the assay on Candida albicans [1] and 13 mm in the assay with Aspergillus flavus [6]. The zone of inhibition at 500 µg/mL is 20 mm in the assay on Candida albicans [2] and 10 mm in the assay with Aspergillus flavus [10]. Besides, the inhibition zone (IZ) in assay [7] was 15 mm; in [9], 17 mm.

`COc1ccc(NC(=O)N2N=C(c3cc4ccccc4o3)CC2c2ccc(O)c(OC)c2)cc1` (centres undefined): the zone of inhibition at 1000 µg/mL with Candida albicans [1] amounted to 5 mm; in the assay with Pseudomonas aeruginosa [3] it was 7 mm; in the assay on Staphylococcus aureus [4] it was 2 mm; in the assay with Aspergillus flavus [6], 4 mm; with Escherichia coli [8], 13 mm. For the same compound, the zone of inhibition at 500 µg/mL worked out at 3 mm in the assay on Candida albicans [2]; 1 mm in the assay with Staphylococcus aureus [5]; 3 mm in the assay on Aspergillus flavus [10]; 5 mm with Pseudomonas aeruginosa [12]; 1 mm in the assay with Escherichia coli [13]. In addition, the inhibition zone (IZ) in [7] was 2 mm; in assay [9] it was 4 mm. Besides, the IC50 was 25 uM/ml in assay [11] and 29 uM/ml in the assay with Liver microsomes.

Consider `COc1cc(C2CC(c3cc4ccccc4o3)=NN2C(=O)Nc2ccc(Cl)cc2)ccc1O` (centres undefined), for which the zone of inhibition at 1000 µg/mL was 20 mm in the assay on Candida albicans [1]; 18 mm in the assay on Pseudomonas aeruginosa [3]; 6 mm with Staphylococcus aureus [4]; 10 mm in the assay with Aspergillus flavus [6]; 17 mm in the assay with Escherichia coli [8]. The zone of inhibition at 500 µg/mL in the assay with Candida albicans [2] was determined as 17 mm; with Staphylococcus aureus [5], 4 mm; in the assay with Aspergillus flavus [10] it was 7 mm; in the assay on Pseudomonas aeruginosa [12], 15 mm; with Escherichia coli [13] it was 11 mm. For the same compound, the inhibition zone (IZ) in assay [7] was 7 mm; in assay [9], 9 mm. Besides, the IC50 in assay [11] stood at 107 uM/ml; in the assay on Liver microsomes, 121 uM/ml.

For the compound `COc1cc(C2CC(c3cc4ccccc4o3)=NN2C(=O)Nc2ccc(O)cc2)ccc1O` (centres undefined), the zone of inhibition at 1000 µg/mL in the assay with Candida albicans [1] was determined as 4 mm; in the assay on Pseudomonas aeruginosa [3], 3 mm; with Staphylococcus aureus [4], 2 mm; in the assay on Aspergillus flavus [6] it was 3 mm; with Escherichia coli [8], 3 mm. For the same compound, the zone of inhibition at 500 µg/mL with Candida albicans [2] was found to be 2 mm; with Staphylococcus aureus [5], 1 mm; with Aspergillus flavus [10] it was 2 mm; in the assay on Pseudomonas aeruginosa [12], 2 mm; in the assay on Escherichia coli [13] it was 2 mm. Moreover, the inhibition zone (IZ) in assay [7] was 1 mm; in assay [9], 2 mm. The IC50 in assay [11] is 17 uM/ml; in the assay with Liver microsomes, 15 uM/ml.

As to `COc1cc(NC(=O)N2N=C(c3cc4ccccc4o3)CC2c2ccc(O)c(OC)c2)ccc1O` (centres undefined), the zone of inhibition at 1000 µg/mL with Candida albicans [1] came out at 2 mm; with Pseudomonas aeruginosa [3], 2 mm; in the assay with Staphylococcus aureus [4], 3 mm; in the assay with Aspergillus flavus [6], 2 mm; with Escherichia coli [8], 2 mm. For the same compound, the zone of inhibition at 500 µg/mL was 1 mm in the assay with Candida albicans [2]; 2 mm with Staphylococcus aureus [5]; 1 mm in the assay on Aspergillus flavus [10]; 1 mm with Pseudomonas aeruginosa [12]; 1 mm with Escherichia coli [13]. In addition, the inhibition zone (IZ) in [7] was 2 mm; in [9], 3 mm. For the same compound, the IC50 in [11] stood at 10 uM/ml; with Liver microsomes, 12 uM/ml.

`CN[C@@H]1[C@H](O[C@H]2[C@H](O[C@H]3[C@H](O)[C@@H](O)[C@H](N=C(N)N)[C@@H](O)[C@@H]3N=C(N)N)O[C@@H](C)[C@]2(O)C=O)O[C@@H](CO)[C@H](O)[C@H]1O` [STREPTOMYCIN]: the zone of inhibition at 1000 µg/mL with Pseudomonas aeruginosa [3] came out at 16 mm; in the assay with Staphylococcus aureus [4], 15 mm; in the assay on Escherichia coli [8], 16 mm. Moreover, the zone of inhibition at 500 µg/mL is 10 mm in the assay with Staphylococcus aureus [5], 13 mm with Pseudomonas aeruginosa [12] and 10 mm in the assay with Escherichia coli [13].
